≈ marks a conversion by molar mass, not a printed value.
What was measured:
[1] = system: Leishmania chagasi; assay: Antileishmanial activity against Leishmania donovani chagasi after 48 hrs; type: functional
[2] = system: Leishmania braziliensis; assay: Antileishmanial activity against Leishmania (Viannia) braziliensis after 48 hrs; type: functional
[3] = system: Leishmania amazonensis; assay: Antileishmanial activity against Leishmania mexicana amazonensis after 48 hrs; type: functional
[4] = system: Trypanosoma cruzi; assay: Antitrypanosomal activity against Trypanosoma cruzi Tulahuen after 48 hrs; type: functional
[5] = system: Trypanosoma cruzi; assay: Antitrypanosomal activity against Trypanosoma cruzi C8CL1 after 48 hrs; type: functional
[6] = system: Trypanosoma cruzi; assay: Antitrypanosomal activity against Trypanosoma cruzi 27R27CL1 after 48 hrs; type: functional
[7] = system: Leishmania mexicana mexicana; assay: Antileishmanial activity against Leishmania mexicana mexicana BEL21 after 48 hrs; type: functional
[8] = system: Leishmania aristidesi; assay: Antileishmanial activity against Leishmania mexicana […] 6331 after 48 hrs; type: functional
[9] = system: Leishmania mexicana venezuelensis; assay: Antileishmanial activity against Leishmania mexicana venezuelensis PM H3 after 48 hrs; type: functional
[10] = system: Leishmania donovani donovani; assay: Antileishmanial activity against Leishmania donovani donovani HS 70 after 48 hrs; type: functional
[11] = system: Leishmania chagasi; assay: Antileishmanial activity against Leishmania donovani chagasi LEM 379 after 48 hrs; type: functional
[12] = system: Leishmania braziliensis; assay: Antileishmanial activity against Leishmania (Viannia) braziliensis 2904 after 48 hrs; type: functional
[13] = system: Leishmania guyanensis; assay: Antileishmanial activity against Leishmania (Viannia) guyanensis M4147 after 48 hrs; type: functional
[14] = system: Leishmania peruviana; assay: Antileishmanial activity against Leishmania (Viannia) peruviana PERU after 48 hrs; type: functional
[15] = system: Leishmania amazonensis; assay: Antileishmanial activity against Leishmania mexicana amazonensis PH8 after 48 hrs; type: functional
[16] = system: Leishmania pifanoi; assay: Antileishmanial activity against Leishmania pifanoi LL1 after 48 hrs; type: functional
[17] = system: Leishmania garnhami; assay: Antileishmanial activity against Leishmania mexicana garnhami JAP78 after 48 hrs; type: functional
[18] = system: Leishmania infantum; assay: Antileishmanial activity against Leishmania donovani infantum LEM 209 after 48 hrs; type: functional, LEM209
[19] = system: Trypanosoma cruzi; assay: Antitrypanosomal activity against Trypanosoma cruzi Z1 after 48 hrs; type: functional
[20] = system: Trypanosoma cruzi; assay: Antitrypanosomal activity against Trypanosoma cruzi Z2 after 48 hrs; type: functional
[21] = system: Trypanosoma cruzi; assay: Antitrypanosomal activity against Trypanosoma cruzi Z2CL4 after 48 hrs; type: functional
[22] = system: Trypanosoma cruzi; assay: Antitrypanosomal activity against Trypanosoma cruzi 13379 CL3 after 48 hrs; type: functional
[23] = system: Trypanosoma cruzi; assay: Antitrypanosomal activity against Trypanosoma cruzi 13379 CL5 after 48 hrs; type: functional
[24] = system: Trypanosoma cruzi; assay: Antitrypanosomal activity against Trypanosoma cruzi 13379 CL6 after 48 hrs; type: functional
[25] = system: Trypanosoma cruzi; assay: Antitrypanosomal activity against Trypanosoma cruzi 13379 CL8 after 48 hrs; type: functional
[26] = system: Trypanosoma cruzi; assay: Antitrypanosomal activity against Trypanosoma cruzi C8 CL1 after 48 hrs; type: functional
[27] = system: Trypanosoma cruzi; assay: Antitrypanosomal activity against Trypanosoma cruzi A98CL5 after 48 hrs; type: functional
[28] = system: Trypanosoma cruzi; assay: Antitrypanosomal activity against Trypanosoma cruzi MIL4CL10 after 48 hrs; type: functional
[29] = system: Trypanosoma cruzi; assay: Antitrypanosomal activity against Trypanosoma cruzi M6241CL6 after 48 hrs; type: functional
[30] = system: Trypanosoma cruzi; assay: Antitrypanosomal activity against Trypanosoma cruzi 9280CL1 after 48 hrs; type: functional
[31] = system: Trypanosoma cruzi; assay: Antitrypanosomal activity against Trypanosoma cruzi CL after 48 hrs; type: functional
[32] = system: Trypanosoma cruzi; assay: Antitrypanosomal activity against Trypanosoma cruzi Y after 48 hrs; type: functional
[33] = system: Trypanosoma cruzi; assay: Antitrypanosomal activity against Trypanosoma cruzi A99CL7 after 48 hrs; type: functional
[34] = system: Trypanosoma cruzi; assay: Antitrypanosomal activity against Trypanosoma cruzi R107 after 48 hrs; type: functional
[35] = system: Trypanosoma cruzi; assay: Antitrypanosomal activity against Trypanosoma cruzi TeCL2 after 48 hrs; type: functional
[36] = system: Trypanosoma cruzi; assay: Antitrypanosomal activity against Trypanosoma cruzi 31R16CL1 after 48 hrs; type: functional
[37] = system: Mus musculus; assay: Toxicity in BALB/c mouse at 800 mg/kg, ip after 72 hrs; type: organism-based; design: dose 800 mg/kg, route intraperitoneal; conditions: in vivo

Row | Molecule | IC90 [1] [µg/mL] | IC90 [2] [µg/mL] | IC90 [3] [µg/mL] | IC90 [4] [µg/mL] | IC90 [5] [µg/mL] | IC90 [6] [µg/mL] | IC90 [7] [µg/mL] | IC90 [8] [µg/mL] | IC90 [9] [µg/mL] | IC90 [10] [µg/mL] | IC90 [11] [µg/mL] | IC90 [19] [µg/mL] | IC90 [20] [µg/mL] | IC90 [21] [µg/mL] | IC90 [22] [µg/mL] | IC90 [23] [µg/mL] | IC90 [24] [µg/mL] | IC90 [25] [µg/mL] | IC90 [26] [µg/mL] | IC90 [27] [µg/mL] | further results
1 | COc1cc(C(C)C)ccc1C | 25 (≈ 152 µM) | 25 (≈ 152 µM) | 25 (≈ 152 µM) | > 100 | > 100 | > 100 | – | – | – | – | – | – | – | – | – | – | – | – | – | – | –
2 | MEGLUMINE ANTIMONATE | – | – | – | – | – | – | > 100 | > 100 | > 100 | > 100 | > 100 | – | – | – | – | – | – | – | – | – | –
3 | COc1cc(C(C)C)c(OC)cc1C [THYMOQUINOL DIMETHYLETHER] | > 100 | > 100 | > 100 | > 100 | > 100 | > 100 | – | – | – | – | – | – | – | – | – | – | – | – | – | – | –
4 | N=C(N)c1ccc(OCCCCCOc2ccc(C(=N)N)cc2)cc1 [PENTAMIDINE] | – | – | – | – | – | – | 1 (≈ 2.94 µM) | 1 (≈ 2.94 µM) | 5 (≈ 14.7 µM) | 1 (≈ 2.94 µM) | 1 (≈ 2.94 µM) | – | – | – | – | – | – | – | – | – | IC90 [12]: 1 µg/mL (≈ 2.94 µM); IC90 [13]: 5 µg/mL (≈ 14.7 µM); IC90 [14]: 5 µg/mL (≈ 14.7 µM); IC90 [15]: 1 µg/mL (≈ 2.94 µM); IC90 [16]: 1 µg/mL (≈ 2.94 µM); IC90 [17]: 1 µg/mL (≈ 2.94 µM); IC90 [18]: 1 µg/mL (≈ 2.94 µM)
5 | COc1cc(C)c(OC)c(OC)c1C(C)C | > 100 | > 100 | > 100 | > 100 | > 100 | > 100 | – | – | – | – | – | – | – | – | – | – | – | – | – | – | –
6 | O=C(Cn1ccnc1[N+](=O)[O-])NCc1ccccc1 [BENZNIDAZOLE] | – | – | – | 50 (≈ 192 µM) | – | 100 (≈ 384 µM) | – | – | – | – | – | 100 (≈ 384 µM) | 100 (≈ 384 µM) | 100 (≈ 384 µM) | > 100 | 100 (≈ 384 µM) | > 100 | > 100 | 100 (≈ 384 µM) | 100 (≈ 384 µM) | IC90 [28]: 25 µg/mL (≈ 96.1 µM); IC90 [29]: > 100 µg/mL; IC90 [30]: 50 µg/mL (≈ 192 µM); IC90 [31]: 100 µg/mL (≈ 384 µM); IC90 [32]: 25 µg/mL (≈ 96.1 µM); IC90 [33]: 100 µg/mL (≈ 384 µM); IC90 [34]: 50 µg/mL (≈ 192 µM); IC90 [35]: 25 µg/mL (≈ 96.1 µM); IC90 [36]: 100 µg/mL (≈ 384 µM)
7 | CC1CS(=O)(=O)CCN1/N=C/c1ccc([N+](=O)[O-])o1 (configuration not stated) [NIFURTIMOX] | – | – | – | 25 (≈ 87 µM) | – | 100 (≈ 348 µM) | – | – | – | – | – | 50 (≈ 174 µM) | 25 (≈ 87 µM) | 50 (≈ 174 µM) | > 100 | 100 (≈ 348 µM) | > 100 | 50 (≈ 174 µM) | 25 (≈ 87 µM) | 100 (≈ 348 µM) | IC90 [28]: 50 µg/mL (≈ 174 µM); IC90 [29]: 50 µg/mL (≈ 174 µM); IC90 [30]: 50 µg/mL (≈ 174 µM); IC90 [31]: 100 µg/mL (≈ 348 µM); IC90 [32]: 25 µg/mL (≈ 87 µM); IC90 [33]: 25 µg/mL (≈ 87 µM); IC90 [34]: 25 µg/mL (≈ 87 µM); IC90 [35]: 25 µg/mL (≈ 87 µM); IC90 [36]: 100 µg/mL (≈ 348 µM)
8 | COc1cc(C)c(O)c(OC)c1C(C)C [ESPINTANOL] | 10 (≈ 47.6 µM) | 10 (≈ 47.6 µM) | 25 (≈ 119 µM) | 25 (≈ 119 µM) | 25 (≈ 119 µM) | 25 (≈ 119 µM) | 25 (≈ 119 µM) | 25 (≈ 119 µM) | 50 (≈ 238 µM) | 50 (≈ 238 µM) | 25 (≈ 119 µM) | 50 (≈ 238 µM) | 50 (≈ 238 µM) | 100 (≈ 476 µM) | 50 (≈ 238 µM) | 50 (≈ 238 µM) | 100 (≈ 476 µM) | 50 (≈ 238 µM) | 25 (≈ 119 µM) | > 100 | IC90 [12]: 10 µg/mL (≈ 47.6 µM); IC90 [13]: 25 µg/mL (≈ 119 µM); IC90 [14]: 25 µg/mL (≈ 119 µM); IC90 [15]: 25 µg/mL (≈ 119 µM); IC90 [16]: 25 µg/mL (≈ 119 µM); IC90 [17]: 25 µg/mL (≈ 119 µM); IC90 [18]: 25 µg/mL (≈ 119 µM); Activity [37]: Active; IC90 [28]: 25 µg/mL (≈ 119 µM); IC90 [29]: > 100 µg/mL; IC90 [30]: 50 µg/mL (≈ 238 µM); IC90 [31]: > 100 µg/mL; IC90 [32]: 50 µg/mL (≈ 238 µM); IC90 [33]: 25 µg/mL (≈ 119 µM); IC90 [34]: 25 µg/mL (≈ 119 µM); IC90 [35]: 25 µg/mL (≈ 119 µM); IC90 [36]: 50 µg/mL (≈ 238 µM)

— ChEMBL document CHEMBL1158948, “[Isolation and synthesis of espintanol, a new antiparasitic monoterpene]” (J Nat Prod, 1991)
